Experimental data: patent publication US8697746B2, “Solid dispersion of alpha-ketoamide derivatives” (Senju Pharmaceutical Co., Ltd., priority 2010, dated 2014)

Experiment: Dissolved amount in water (Test Example 1)
Assay type: physicochemical
Conditions: 5 mg sample in 1 mL water, shaken, supernatant measured by HPLC
Experimental: Each of the above-prepared Formulation 1 and the solid dispersions of Formulations 2 to 6 was separately dispersed in water. Sampling from each solution was performed at 15, 30, and 60 minutes after dispersion, and the concentration of ((1S)-1-((((1S)-1-benzyl-2,3-dioxo-3-(cyclopropylamino)propyl)amino) carbonyl)-3-methylbutyl)carbamic acid 5-methoxy-3-oxapentyl ester was measured according to the procedure shown below.
To 5 mg of each of the above-prepared Formulation 1 and the solid dispersions of Formulations 2 to 6, 1 mL of water was added and the mixture was shaken with a shaker (Labindustries Inc., Labquake Shaker L1237). Shaking was stopped when the predetermined sampling time elapsed, and centrifugation at 13000 rpm was immediately performed at 25° C. for 5 minutes with a centrifugal separator (Kendro Lab Products, Sorvall Biofuge Fresco) to give a supernatant. A sample solution was prepared by mixing 0.5 mL of methanol to 0.5 mL of the supernatant and then measured for concentration of ((1S)-1-((((1S)-1-benzyl-2,3-dioxo-3-(cyclopropylamino)propyl)amino)carbonyl)-3-methylbutyl) carbamic acid 5-methoxy-3-oxapentyl ester by HPLC (Shimadzu, 10A-VP system).
Detector: ultraviolet absorptiometer (detection wavelength: 252 nm)
Column: YMC-Pack ODS-A (inside diameter: 4.6 mm, length: 250 mm, particle diameter: 5 μm, YMC)
Column temperature: constant temperature at around 40° C. […]

- dissolved amount in water: 0.45 mg/mL
SMILES: COCCOCCOC(=O)N[C@@H](CC(C)C)C(=O)N[C@@H](Cc1ccccc1)C(=O)C(=O)NC1CC1 [((1S)-1-((((1S)-1-benzyl-2,3-dioxo-3-(cyclopropylamino)propyl)amino)carbonyl)-3-methylbutyl)carbamic acid 5-methoxy-3-oxapentyl ester]
